{"source": "paper PMC6086658", "about": "“Unified mechanisms for self-RNA recognition by RIG-I Singleton-Merten syndrome variants” (eLife, 2018)", "molecules": {"B1": {"name": "14mer dsRNA (dsRNA)", "RNA 1": "CGACGCUAGCGUCG", "RNA 2": "CGACGCUAGCGUCG"}, "B2": {"name": "Cy3-hpRNA (14mer stem hairpin) (structured_RNA)", "RNA": "CCACCCGCCCCCCUAGUGAGGGGGGCGGGCC"}}, "key": {"RIG-I C268F [1]": {"target": "T1, RIG-I C268F (Homo sapiens, UniProt O95786, C268F)", "T1 construct": "made in house; host or cells: High Five (Trichoplusia ni) insect cells, baculovirus, pFBDM vector", "T1 sequence (O95786 1-925 C268F)": "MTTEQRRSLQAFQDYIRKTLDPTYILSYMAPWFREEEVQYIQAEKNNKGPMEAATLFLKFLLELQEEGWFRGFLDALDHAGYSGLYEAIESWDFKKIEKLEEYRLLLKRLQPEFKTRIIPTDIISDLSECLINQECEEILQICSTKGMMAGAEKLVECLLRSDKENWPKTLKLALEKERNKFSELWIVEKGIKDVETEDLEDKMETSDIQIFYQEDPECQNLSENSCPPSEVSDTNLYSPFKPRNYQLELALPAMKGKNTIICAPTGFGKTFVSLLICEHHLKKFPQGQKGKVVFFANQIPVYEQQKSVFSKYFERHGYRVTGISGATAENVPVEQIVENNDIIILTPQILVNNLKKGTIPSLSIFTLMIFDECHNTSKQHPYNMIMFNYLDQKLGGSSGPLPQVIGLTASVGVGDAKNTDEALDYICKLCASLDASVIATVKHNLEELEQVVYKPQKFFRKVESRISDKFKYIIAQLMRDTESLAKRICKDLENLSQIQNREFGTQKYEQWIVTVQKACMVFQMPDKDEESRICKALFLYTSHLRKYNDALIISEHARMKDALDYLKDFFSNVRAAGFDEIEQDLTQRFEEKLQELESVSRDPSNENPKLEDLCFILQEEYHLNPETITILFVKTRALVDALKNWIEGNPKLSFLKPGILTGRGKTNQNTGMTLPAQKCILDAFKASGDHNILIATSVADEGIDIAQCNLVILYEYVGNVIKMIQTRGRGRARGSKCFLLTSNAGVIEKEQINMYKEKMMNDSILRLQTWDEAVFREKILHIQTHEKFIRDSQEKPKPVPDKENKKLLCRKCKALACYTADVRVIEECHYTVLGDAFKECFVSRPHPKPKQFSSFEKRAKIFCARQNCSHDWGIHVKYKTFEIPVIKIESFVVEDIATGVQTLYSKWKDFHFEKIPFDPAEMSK", "assay": "MANT-nucleotide binding, tryptophan fluorescence FRET", "experimental": "(§1) Binding of MANT-ATP and MANT-ATPγS to different full-length RIG-I mutants (1–925, N-terminal His-tag) was determined via Förster resonance energy transfer from RIG-I to MANT-ATP (Jena Bioscience, Jena, Germany). All samples were prepared in 96-well black chimney microplates. 2.2 µM protein and equimolar concentrations of a 14mer dsRNA (5'-CGACGCUAGCGUCG-3', see 'Protein crystalization') were pre-incubated with different MANT-ATP concentrations (0.2 µM – 200 µM) for 15 min at room temperature in assay buffer (25 mM HEPES, 50 mM NaCl, 5 mM MgCl2, 1 mM DTT, pH 7). Fluorescence of MANT-ATP was measured in a TECAN M1000 microplate reader at λex/em = 290/448 nm, gain = 170 using an average of five reads per well. Assays were performed four times in independent experiments using the same protein purification batch. For determination of affinities fluorescence values were fitted to Equation (1) using R, where y is the fluorescence, [P] is the protein concentration, Bmax is the maximal fluorescence and KD is the dissociation constant. Fitting was performed globally on all available datasets. Representative values in figures are mean values ± SD."}, "RIG-I [2]": {"target": "T2, RIG-I (Homo sapiens, UniProt O95786)", "T2 construct": "Recombinant full-length human RIG-I or RIG-I single amino acid mutants (1–925, N-terminal His-tag); made in house; host or cells: High Five (Trichoplusia ni) insect cells, baculovirus, pFBDM vector", "T2 sequence (O95786 1-925)": "T1 sequence (O95786 1-925 C268F) with F268C", "assay": "MANT-nucleotide binding, tryptophan fluorescence FRET", "conditions": "n = 4", "experimental": "as §1, with “All samples were prepared in 96-well black chimney microplates. 2.2 µM protein and equimolar concentrations of a 14mer dsRNA (5'-CGACGCUAGCGUCG-3', see 'Protein crystalization') were pre-incubated with different MANT-ATP concentrations (0.2 µM – 200 µM) for 15 min at room temperature in assay buffer (25 mM HEPES, 50 mM NaCl, 5 mM MgCl2, 1 mM DTT, pH 7).” left out"}, "RIG-I [3]": {"target": "T2, RIG-I", "assay": "Fluorescence anisotropy RNA binding", "conditions": "10 nM labeled RNA, one-site binding fit, n = 4", "experimental": "(§2) Affinities of full-length RIG-I or RIG-I C268F (1–925, N-terminal His-tag) to a Cy3-labeled hpRNA (5'-Cy3-[…]-3', purchased from Biomers, Ulm, Germany) were determined using fluorescence anisotropy. All samples were prepared in 96-well black chimney microplates (Greiner Bio-One, Kremsmünster, Austria). 10 nM RNA was pre-incubated with different protein concentrations (2.4 nM – 5 µM) for 15 min at room temperature in assay buffer (25 mM HEPES, 50 mM KCl, 5 mM MgCl2, 1 mM DTT, pH 7). Fluorescence anisotropy was measured after the addition of 5 mM ATP using a TECAN M1000 microplate reader (Tecan, Männedorf, Switzerland) at λex/em = 530/570 nm and gain = 130 during a time course of 25 min in 1 min intervals. Assays were performed four times in independent experiments using the same protein purification batch. For determination of affinities, anisotropy values between 15 and 20 min measuring time were averaged and fit to the following single-site binding model using R ([R Development Core Team, 2013]):(1) y=Bmax[P]/P+KD where y is the observed anisotropy, [P] is the protein concentration, Bmax is the maximal anisotropy and KD is the dissociation constant. Fitting was performed globally on all available datasets. Representative values in figures are mean values ± SD."}, "RIG-I C268F [4]": {"target": "T1, RIG-I C268F", "assay": "Fluorescence anisotropy RNA binding", "conditions": "10 nM labeled RNA, one-site binding fit, n = 4", "experimental": "as §2"}, "RIG-I Δ2CARD C268F": {"target": "T3, RIG-I Δ2CARD C268F (human, UniProt O95786 232-925, C268F)", "T3 sequence": "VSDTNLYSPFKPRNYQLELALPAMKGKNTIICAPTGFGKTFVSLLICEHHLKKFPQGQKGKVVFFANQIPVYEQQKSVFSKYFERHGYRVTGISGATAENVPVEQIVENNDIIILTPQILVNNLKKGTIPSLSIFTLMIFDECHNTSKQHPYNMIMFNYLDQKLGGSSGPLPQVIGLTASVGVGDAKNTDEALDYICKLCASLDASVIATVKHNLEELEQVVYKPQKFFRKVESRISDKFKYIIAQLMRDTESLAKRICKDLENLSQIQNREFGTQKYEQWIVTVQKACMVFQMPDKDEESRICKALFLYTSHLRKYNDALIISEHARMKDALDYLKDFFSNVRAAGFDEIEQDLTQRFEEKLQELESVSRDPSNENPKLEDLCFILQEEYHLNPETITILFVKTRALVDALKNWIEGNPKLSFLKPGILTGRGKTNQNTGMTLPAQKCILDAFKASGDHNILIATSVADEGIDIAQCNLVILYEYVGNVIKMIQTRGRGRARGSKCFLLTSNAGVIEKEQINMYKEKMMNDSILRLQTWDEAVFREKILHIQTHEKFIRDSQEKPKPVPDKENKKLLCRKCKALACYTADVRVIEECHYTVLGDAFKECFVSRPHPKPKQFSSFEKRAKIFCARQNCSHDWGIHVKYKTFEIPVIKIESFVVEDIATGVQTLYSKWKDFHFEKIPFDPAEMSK", "assay": "crystal structure; co-crystallized with ADP-BeFx or ATP; no nucleotide bound in structure; Fluorescence anisotropy: 25 mM HEPES pH 7, 50 mM KCl, 5 mM MgCl2, 1 mM DTT, +/- 5 mM ATP, 10 nM RNA, room temperature", "conditions": "protein: recombinant; tags: N-terminal His-tag (insect cells) or His-SUMO3 cleaved off (E. coli); blunt, palindromic self-duplex"}, "RIG-I wild type": {"target": "T4, RIG-I wild type (human, UniProt O95786 1-925)", "T4 sequence": "T1 sequence (O95786 1-925 C268F) with F268C", "assay": "fluorescence anisotropy; no ATP, 5 mM Mg2+; Fluorescence anisotropy: 25 mM HEPES pH 7, 50 mM KCl, 5 mM MgCl2, 1 mM DTT, +/- 5 mM ATP, 10 nM RNA, room temperature", "conditions": "protein: recombinant; tags: N-terminal His-tag; label: 5'-Cy3; hairpin with non-base-paired ends"}, "RIG-I C268F [5]": {"target": "T5, RIG-I C268F (human, UniProt O95786 1-925, C268F)", "T5 sequence": "T1 sequence (O95786 1-925 C268F)", "assay": "fluorescence anisotropy; no ATP, 5 mM Mg2+; Fluorescence anisotropy: 25 mM HEPES pH 7, 50 mM KCl, 5 mM MgCl2, 1 mM DTT, +/- 5 mM ATP, 10 nM RNA, room temperature", "conditions": "protein: recombinant; tags: N-terminal His-tag; label: 5'-Cy3; hairpin with non-base-paired ends"}}, "note": "Substitutions are numbered along the chain they refer to. {Cy3} = Cy3 fluorescent label"}
{"molecule": "MANT-ATPγS", "values": [{"measurement": "Kd", "setting": "RIG-I C268F [1]; absence of RNA, n = 4, read-out: Affinity (KD) to RIG-I C268F", "result": "116 ± 13", "unit": "µM"}, {"measurement": "Kd", "setting": "RIG-I C268F [1]; presence of equimolar 14mer dsRNA, n.f. = no fit possible as no saturation was reached, read-out: Affinity (KD) to RIG-I C268F + RNA", "result": "147 ± 55", "unit": "µM"}, {"measurement": "Kd", "setting": "RIG-I [2]; absence of RNA, full-length His-RIG-I, read-out: Affinity (KD) to RIG-I", "result": "58 ± 7", "unit": "µM"}, {"measurement": "Kd", "setting": "RIG-I [2]; presence of equimolar 14mer dsRNA, read-out: Affinity (KD) to RIG-I + RNA", "result": "11 ± 1", "unit": "µM"}]}
{"molecule": "5'-Cy3-CCACCCGCCCCCCUAGUGAGGGGGGCGGGCC-3' (RNA, 5' {Cy3}, backbone not given here; RNA hairpin ligand with non-base-paired ends, used in fluorescence anisotropy binding assays) [fluorescently labeled 14mer dsRNA, Cy3-labeled hairpin RNA containing non-base-paired RNA ends, purchased from Biomers]", "values": [{"measurement": "Kd", "setting": "RIG-I [3]; absence of ATP, read-out: KD, RIG-I", "result": 0.54, "unit": "µM"}, {"measurement": "Kd", "setting": "RIG-I [3]; presence of 5 mM ATP, read-out: KD, RIG-I + ATP", "result": 1.04, "unit": "µM"}, {"measurement": "Kd", "setting": "RIG-I C268F [4]; absence of ATP, read-out: KD, RIG-I C268F", "result": 0.098, "unit": "µM"}, {"measurement": "Kd", "setting": "RIG-I C268F [4]; presence of 5 mM ATP, read-out: KD, RIG-I C268F + ATP", "result": 0.058, "unit": "µM"}]}
{"molecule": "B1", "values": [{"measurement": "binding result", "setting": "RIG-I Δ2CARD C268F", "result": "binds"}]}
{"molecule": "B2", "values": [{"measurement": "binding result", "setting": "RIG-I wild type", "result": "binds"}, {"measurement": "binding result", "setting": "RIG-I C268F [5]", "result": "binds"}]}
